Measurements taken from US20070059369A1, “Subcutaneous delivery system, process for the preparation of the same and use of the same for the treatment of cholinergic deficient disorders” (priority 2003, published 2007).

Assays:
[1] = aged patients and patients suffering from Alzheimer's disease; cited from earlier work
[2] = test system: cerebral hypoxia-ischemia rat model; details: cited from earlier work
[3] = test system: acetylcholinesterase (AChE); assay: Inhibition of acetylcholinesterase; format: biochemical; details: different species (rat, bovine and human)
[4] = biological target: butyrylcholinesterase (BuChE) (Homo sapiens, UniProt P06276); assay: Inhibition of butyrylcholinesterase; format: biochemical; details: in contrast to AChE
butyrylcholinesterase (BuChE), sequence (P06276 29-602): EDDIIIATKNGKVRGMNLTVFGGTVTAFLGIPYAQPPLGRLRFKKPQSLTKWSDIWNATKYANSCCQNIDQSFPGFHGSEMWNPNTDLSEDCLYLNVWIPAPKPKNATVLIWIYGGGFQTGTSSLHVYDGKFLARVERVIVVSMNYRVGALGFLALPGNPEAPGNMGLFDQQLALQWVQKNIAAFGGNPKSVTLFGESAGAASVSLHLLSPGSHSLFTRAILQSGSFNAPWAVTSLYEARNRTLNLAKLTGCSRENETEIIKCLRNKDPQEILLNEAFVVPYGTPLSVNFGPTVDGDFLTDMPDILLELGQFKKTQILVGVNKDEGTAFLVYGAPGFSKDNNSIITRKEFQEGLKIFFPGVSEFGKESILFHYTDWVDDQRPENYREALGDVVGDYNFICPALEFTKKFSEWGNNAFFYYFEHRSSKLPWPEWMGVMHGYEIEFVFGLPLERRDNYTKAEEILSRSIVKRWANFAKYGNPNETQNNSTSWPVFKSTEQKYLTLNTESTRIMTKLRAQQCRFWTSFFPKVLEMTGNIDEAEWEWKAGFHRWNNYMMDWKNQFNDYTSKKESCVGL

acetylcholinesterase = acetylcholinesterase (Homo sapiens, UniProt P22303); details: from EP 0 806 416; cited from earlier work
acetylcholinesterase, sequence (P22303 32-614): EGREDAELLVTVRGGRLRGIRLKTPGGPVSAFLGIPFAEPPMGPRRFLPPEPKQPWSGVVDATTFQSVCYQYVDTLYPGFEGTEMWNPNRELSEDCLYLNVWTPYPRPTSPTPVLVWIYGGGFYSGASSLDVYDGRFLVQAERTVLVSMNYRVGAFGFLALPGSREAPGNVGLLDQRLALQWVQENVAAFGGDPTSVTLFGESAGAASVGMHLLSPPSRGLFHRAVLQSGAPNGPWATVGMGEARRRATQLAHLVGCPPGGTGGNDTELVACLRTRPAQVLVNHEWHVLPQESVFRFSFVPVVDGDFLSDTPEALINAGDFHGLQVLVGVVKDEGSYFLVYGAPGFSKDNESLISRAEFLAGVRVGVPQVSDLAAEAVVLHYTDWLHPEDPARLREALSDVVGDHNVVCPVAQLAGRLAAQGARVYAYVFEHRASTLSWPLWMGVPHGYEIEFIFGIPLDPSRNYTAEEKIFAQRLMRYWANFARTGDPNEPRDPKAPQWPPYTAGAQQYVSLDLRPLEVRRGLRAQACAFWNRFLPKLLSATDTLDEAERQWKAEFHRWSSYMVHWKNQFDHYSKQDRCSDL

| SMILES | Memory-enhancing effects [1] | Neuroprotective effect of rescue treatment [2] | Inhibition of acetylcholinesterase (AChE) [3] | Inhibitory activity on butyrylcholinesterase (BuChE) [4] | Selectivity for acetylcholinesterase compared to butyrylcholinesterase (acetylcholinesterase) |
| --- | --- | --- | --- | --- | --- |
| C/C=C1\[C@H]2C=C(C)C[C@]1(N)c1ccc(=O)[nH]c1C2 [Huperzine A] | memory-enhancing effects | beneficial neuroprotective effect | – | – | – |
| C/C=C1\C2C=C(C)CC1(/N=C/c1cc(Cl)cc(OC)c1O)c1ccc(=O)[nH]c1C2 (centres unmarked) [derivative of formula (III)] | – | – | potent and selective inhibitor | much weaker inhibitory activity | highly selective activity in favour of acetylcholinesterase |
